A short description of the data set: Dynamic moisture sorption (DMS) analysis of crystalline forms. It counts as physicochemical. The settings on record: for DMS: weight picked up at 90% RH / DMS: increase of weight at about 90% relative humidity: isotherm 25° C.; for DMS: increase of weight at about 90% relative humidity: physical-property summary tables; for Hygroscopicity by DMS (in words): up to 90% RH; for Change of crystal form during DMS analysis (in words): high % RH. How it is done:
Further characterization with respect to hygroscopicity of the crystalline forms can be gauged by, for example, dynamic moisture sorption (DMS). The DMS features reported herein can vary by plus or minus about 5% relative humidity. The DMS features reported herein can also vary by plus or minus about 5% weight change.
Samples are prepared for dynamic moisture-sorption analysis by placing ˜5 mg to ˜20 mg of compound in a tarred sample holder on the VTI balance. The instrument is a dynamic moisture-sorption analyzer, VTI Corporation, SGA-100, equipment #0228. A drying step is run at 40° C. and ˜1% RH for 1 h. The isotherm temperature is 25° C. A % weight change over 10 min (5 weight readings) of dm/dt=0.010 or 2 h, whichever occurs first, is required before continuing to the next step. The water content of the sample equilibrated as described above was determined from 30% RH to 90% RH and then back down to 10% RH.

Structures can show the parent of a compound that is named as a salt.

In the case of `N=C(N)NCCC[C@H](N)C(=O)O.O.O=C(COC[C@H]1CC[C@H](COC(=O)N(c2ccccc2)c2ccc(Cl)cc2)CC1)NCCS(=O)(=O)O` [Compound Ia L-arginine salt hydrate, L-arginine 2-(2-(((1r,4r)-4-(((4-chlorophenyl)(phenyl)carbamoyloxy)methyl)cyclohexyl)methoxy)acetamido)ethanesulfonate hydrate], the “DMS: weight picked up at 90% RH” value is “about 1 % by weight”, the “DMS: increase of weight at about 90% relative humidity” value is recorded as “FIG. 31: Increase of about 1% weight at about 90% relative” and the “Hygroscopicity by DMS (in words)” value is on record as “slightly hygroscopic”.
For the compound `O=C(COC[C@H]1CC[C@H](COC(=O)N(c2ccccc2)c2ccc(Cl)cc2)CC1)NCCS(=O)(=O)O` [Compound Ia TRIS salt, 2-(2-(((1r,4r)-4-(((4-Chlorophenyl)(phenyl)carbamoyloxy)methyl)cyclohexyl)methoxy)acetamido)ethanesulfonic Acid], the “DMS: weight picked up at 90% RH” value is “about 1.2 % by weight” and the “Hygroscopicity by DMS (in words)” value was “slightly hygroscopic”.
Turning to `O.O=C(COC[C@H]1CC[C@H](COC(=O)N(c2ccccc2)c2ccc(Cl)cc2)CC1)NCCS(=O)(=O)[O-].O=C(COC[C@H]1CC[C@H](COC(=O)N(c2ccccc2)c2ccc(Cl)cc2)CC1)NCCS(=O)(=O)[O-].[Ca+2]` [Compound Ia calcium salt hydrate I, calcium 2-(2-(((1r,4r)-4-(((4-chlorophenyl)(phenyl)carbamoyloxy)methyl)cyclohexyl)methoxy)acetamido)ethanesulfonate hydrate I], the “DMS: weight picked up at 90% RH” value was “about 7 % by weight”, the “Change of crystal form during DMS analysis (in words)” value is on record as “converting to Compound Ia calcium salt hydrate IV”, the “DMS: increase of weight at about 90% relative humidity” value is on record as “FIG. 17: Increase of 7% weight at about 90% relative humidity” and the “Hygroscopicity by DMS (in words)” value is given as “hygroscopic”.
On the same counts, the results for `O.O=C(COC[C@H]1CC[C@H](COC(=O)N(c2ccccc2)c2ccc(Cl)cc2)CC1)NCCS(=O)(=O)O` [Compound Ia free acid hydrate, 2-(2-(((1r,4r)-4-(((4-chlorophenyl)(phenyl)carbamoyloxy)methyl)cyclohexyl)methoxy)acetamido)ethanesulfonic acid hydrate] are “over 10 % by weight”, “form a new hydrate crystal phase at high % RH values”, “FIG. 3: Increase of about 10% weight at about 90% relative” and “hygroscopic”.
In the case of `O.O=C(COC[C@H]1CC[C@H](COC(=O)N(c2ccccc2)c2ccc(Cl)cc2)CC1)NCCS(=O)(=O)[O-].O=C(COC[C@H]1CC[C@H](COC(=O)N(c2ccccc2)c2ccc(Cl)cc2)CC1)NCCS(=O)(=O)[O-].[Mg+2]` [Compound Ia magnesium salt hydrate, magnesium 2-(2-(((1r,4r)-4-(((4-chlorophenyl)(phenyl)carbamoyloxy)methyl)cyclohexyl)methoxy)acetamido)ethanesulfonate hydrate], the “DMS: weight picked up at 90% RH” value is recorded as 1.2 % by weight, the “DMS: increase of weight at about 90% relative humidity” value is listed as “FIG. 14: Increase of 1.2% weight at about 90% relative humidity” and the “Hygroscopicity by DMS (in words)” value is listed as “slightly hygroscopic”.
As for `O.O=C(COC[C@H]1CC[C@H](COC(=O)N(c2ccccc2)c2ccc(Cl)cc2)CC1)NCCS(=O)(=O)[O-].[K+]` [Compound Ia potassium salt hydrate, potassium 2-(2-(((1r,4r)-4-(((4-chlorophenyl)(phenyl)carbamoyloxy)methyl)cyclohexyl)methoxy)acetamido)ethanesulfonate hydrate], the “DMS: weight picked up at 90% RH” value was 3-4 % by weight and the “Hygroscopicity by DMS (in words)” value is recorded as “slightly hygroscopic”.

The values above are taken from US20120225937A1, “CRYSTALLINE FORMS AND PROCESSES FOR THE PREPARATION OF PG12 RECEPTOR AGONISTS” (Arena Pharmaceuticals, Inc., priority 2009, published 2012).
